In brackets after ≈: the same amount, converted by molar mass.

One may read the MIC as the lowest concentration that inhibits growth of the organism. A word on the ΔTm: it is the shift of the melting midpoint relative to a reference. As a reminder, the inhibition is how much of the control response was suppressed. Broadly, the IC50 is the concentration needed to halve the response being measured.

For test [1], the system named is Escherichia coli. The test is described as follows: Antibacterial activity against Escherichia coli ATCC 25922 strain assessed as inhibition of bacterial growth incubated for 8 hrs by CLSI protocol based microdilution assay. The test is classed as functional.
The target of test [2] is T1, Threonine--tRNA ligase (Salmonella enterica) (UniProt A0A3F3IEK2).
T1 sequence (whole entry): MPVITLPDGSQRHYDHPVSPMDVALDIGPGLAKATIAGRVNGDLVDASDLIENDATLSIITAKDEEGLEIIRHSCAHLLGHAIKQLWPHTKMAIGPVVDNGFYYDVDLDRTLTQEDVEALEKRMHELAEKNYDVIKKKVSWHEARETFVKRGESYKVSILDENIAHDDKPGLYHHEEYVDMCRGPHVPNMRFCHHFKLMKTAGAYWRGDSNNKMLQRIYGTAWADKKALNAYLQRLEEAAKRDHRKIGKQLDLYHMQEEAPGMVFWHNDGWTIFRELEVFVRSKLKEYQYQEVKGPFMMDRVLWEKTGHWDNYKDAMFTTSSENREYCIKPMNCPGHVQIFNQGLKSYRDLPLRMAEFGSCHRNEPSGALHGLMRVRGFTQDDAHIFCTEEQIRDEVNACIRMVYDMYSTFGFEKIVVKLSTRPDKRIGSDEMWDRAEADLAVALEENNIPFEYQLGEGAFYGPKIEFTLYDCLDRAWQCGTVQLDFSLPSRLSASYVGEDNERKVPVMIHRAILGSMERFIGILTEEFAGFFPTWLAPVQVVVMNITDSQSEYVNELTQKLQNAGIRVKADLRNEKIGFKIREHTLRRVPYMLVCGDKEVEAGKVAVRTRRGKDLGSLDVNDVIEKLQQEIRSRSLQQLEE
The test is described as follows: Binding affinity to recombinant salmonella enterica threonyl-tRNA synthetase assessed as change in melting temperature at 0.1 mM by fluorescence-based thermal shift assay.

The target of test [3] is T1, Threonine--tRNA ligase (Salmonella enterica). The test is described as follows: Inhibition of recombinant salmonella enterica threonyl-tRNA synthetase assessed as reduction in enzyme activity at 10 uM incubated for 20 min by Kinase Glo luminescence assay relative to control. (In Kinase-Glo more light means more ATP remaining.)
For another test, the target named is T2, Threonine--tRNA ligase (Salmonella enterica, UniProt A0A3F3IEK2).
T2 sequence (A0A3F3IEK2 whole entry): T1 sequence (whole entry)
The test is described as follows: Inhibition of recombinant salmonella enterica threonyl-tRNA synthetase assessed as reduction in enzyme activity incubated for 20 min by Kinase Glo luminescence assay.

Test [4] concerns Staphylococcus aureus. The test is described as follows: Antibacterial activity against Staphylococcus aureus ATCC 29213 strain assessed as inhibition of bacterial growth incubated for 8 hrs by CLSI protocol based microdilution assay. The test is classed as functional. Background: Broth dilution looks for growth in wells or tubes with falling amounts of substance.
The next test concerns Enterococcus faecalis. The test is described as follows: Antibacterial activity against Enterococcus faecalis ATCC 29212 strain assessed as inhibition of bacterial growth incubated for 8 hrs by CLSI protocol based microdilution assay. It is filed as functional.
The test system of test [5] is Staphylococcus aureus. Briefly: Antibacterial activity against Staphylococcus aureus MRSA R3708 strain assessed as inhibition of bacterial growth incubated for 8 hrs by CLSI protocol based microdilution assay. The test is classed as functional.
The subject of a further test is Salmonella enterica. The test is described as follows: Antibacterial activity against Salmonella enterica 87 strain assessed as inhibition of bacterial growth incubated for 8 hrs by CLSI protocol based microdilution assay. It is filed as functional.
Test [6] deals with Escherichia coli. Briefly: Antibacterial activity against Escherichia coli acraB strain assessed as inhibition of bacterial growth incubated for 8 hrs by CLSI protocol based microdilution assay. The test is classed as functional.
Another test has as its system Pseudomonas aeruginosa. The test is described as follows: Antibacterial activity against Pseudomonas aeruginosa ATCC27853 strain assessed as inhibition of bacterial growth incubated for 8 hrs by CLSI protocol based microdilution assay. It is filed as functional.

Turning to `CN[C@H](C(=O)N[C@@H](CNC(=O)CCn1cnc2cc(Cl)c(F)cc2c1=O)c1cccc(-c2ccccc2)c1)[C@@H](C)O`, the MIC is at least 128 µg/mL in the test on Escherichia coli [1]; 32 µg/mL (≈ 55.2 µM) in the test on Staphylococcus aureus [4]; 32 µg/mL (≈ 55.2 µM) with Enterococcus faecalis; 32 µg/mL (≈ 55.2 µM) with Staphylococcus aureus [5]; at least 128 µg/mL in the test with Salmonella enterica; 16 µg/mL (≈ 27.6 µM) in the test on Escherichia coli [6]. The MIC in the test with Pseudomonas aeruginosa came out at 16 µg/mL (≈ 27.6 µM). Also, the shift in melting temperature (ΔTm) in [2] came to 22.1 °C. The inhibition in [3] was 73%. Moreover, the half-inhibitory concentration (IC50) on Threonine--tRNA ligase turned out to be 2.1 µM.

As to `C[C@@H](O)[C@H](N)C(=O)N(CCCCOC(=O)Cn1cnc2cc(Br)c(Cl)cc2c1=O)Cc1cccc(-c2ccc3c(c2)CNC3=O)c1`, in [2], the ΔTm was 0 °C.

For `CN[C@H](CC(C)C)C(=O)N[C@H]1C(=O)N[C@@H](CC(N)=O)C(=O)N[C@H]2C(=O)N[C@H]3C(=O)N[C@H](C(=O)N[C@H](C(=O)O)c4cc(O)cc(O)c4-c4cc3ccc4O)[C@H](O)c3ccc(c(Cl)c3)Oc3cc2cc(c3O[C@@H]2O[C@H](CO)[C@@H](O)[C@H](O)[C@H]2O[C@H]2C[C@](C)(N)[C@H](O)[C@H](C)O2)Oc2ccc(cc2Cl)[C@H]1O` [VANCOMYCIN], in the test with Enterococcus faecalis, the MIC came out at 2 µg/mL (≈ 1.38 µM).

As for `C[C@@H](O)[C@H](N)C(=O)N[C@H](CNC(=O)CCn1cnc2cc(Br)c(Cl)cc2c1=O)c1cccc(-c2ccc3[nH]ccc3c2)c1`, the shift in melting temperature (ΔTm) in [2] turned out to be 8.4 °C. Besides, the inhibition in [3] came to 24%.

For `C[C@@H](O)[C@H](N)C(=O)N[C@H](CNC(=O)CCn1cnc2cc(Br)c(Cl)cc2c1=O)c1cccc(-c2ccc3[nH]ncc3c2)c1`, the thermal shift (ΔTm) in test [2] is 10.2 °C. In test [3], the inhibition was 30%.

With `C[C@@H](O)[C@H](N)C(=O)N[C@H](CNC(=O)CCn1cnc2cc(Cl)c(F)cc2c1=O)c1cccc(-c2ccccc2)c1`, the ΔTm in [2] was found to be 12.1 °C. The inhibition in [3] worked out at 11%.

Turning to `C[C@@H](O)[C@H](N)C(=O)N[C@H](CNC(=O)CCn1cnc2cc(Br)c(Cl)cc2c1=O)c1cccc(-c2ccccc2)c1`, in test [2], the shift in melting temperature (ΔTm) was 7 °C. The inhibition in [3] came to 8%.

`C[C@@H](O)[C@H](N)C(=O)N[C@H](CNC(=O)CCn1cnc2cc(Br)c(Cl)cc2c1=O)c1cccc(-c2ccc3ccccc3c2)c1`: the thermal shift (ΔTm) in test [2] was found to be 4.8 °C.

As to `C[C@@H](O)[C@H](N)C(=O)N[C@H](CNC(=O)CCn1cnc2cc(Cl)c(Cl)cc2c1=O)c1cccc(-c2ccccc2)c1`, the ΔTm in test [2] was found to be 5 °C.

For `C[C@@H](O)[C@H](N)C(=O)N[C@H](CNC(=O)CCn1cnc2cc(Br)c(Cl)cc2c1=O)c1cccc(-c2ccc3c(c2)CNC3=O)c1`, the shift in melting temperature (ΔTm) in test [2] was determined as 17.9 °C. Further, in [3], the inhibition turned out to be 86%. The IC50 on Threonine--tRNA ligase stood at 1.86 µM.

For the molecule `CC1(C)S[C@@H]2[C@H](NC(=O)[C@H](N)c3ccccc3)C(=O)N2[C@H]1C(=O)O` [AMPICILLIN], the MIC in the test with Escherichia coli [1], in the test with Salmonella enterica, with Escherichia coli [6] and in the test with Pseudomonas aeruginosa was 1 µg/mL (≈ 2.86 µM) each time.

Consider `CN[C@H](C(=O)N[C@H](CNC(=O)CCn1cnc2cc(Cl)c(F)cc2c1=O)c1cccc(-c2ccccc2)c1)[C@@H](C)O`, for which the ΔTm in test [2] was found to be 7.2 °C. In addition, the inhibition in test [3] is 5%.

As for `C[C@@H](O)[C@H](N)C(=O)N[C@H](CNC(=O)CCn1cnc2cc(Br)c(Cl)cc2c1=O)c1cccc(-c2ccc3c(N)ncnc3c2)c1`, in test [2], the thermal shift (ΔTm) stood at 29.4 °C. In addition, the inhibition in [3] was 57%. The IC50 on Threonine--tRNA ligase stood at 6.63 µM.

With `C[C@@H](O)[C@H](N)C(=O)N(CCC(=O)N1CCN(CCn2cnc3cc(Br)c(Cl)cc3c2=O)CC1)Cc1cccc(-c2ccc3c(c2)CNC3=O)c1`, in [2], the ΔTm amounted to 0 °C.

Consider `C[C@@H](O)[C@@H](N)C(=O)N(CCCCCn1cnc2cc(Br)c(Cl)cc2c1=O)S(=O)(=O)c1cccc(-c2ccc3c(c2)CNC3=O)c1`, for which the shift in melting temperature (ΔTm) in [2] worked out at 6.2 °C. The inhibition in [3] stood at 16%.

On to `C[C@@H](O)[C@H](N)C(=O)N(CCCOC(=O)Cn1cnc2cc(Br)c(Cl)cc2c1=O)Cc1cccc(-c2ccc3c(c2)CNC3=O)c1`, for which the ΔTm in test [2] is 0 °C.
